Experimental data published in the Kinase Knowledgebase extract (Sharma et al. 2016).

Biological target: PIK3CB;PIK3CG;PIK3CD;PIK3CA (human) (UniProt P48736)
Assay: Enzyme Assay

IC50 | Structure (SMILES)
1640 nM | O=C(c1nn(-c2ccc3[nH]ncc3c2)c2c1CS(=O)(=O)c1ccccc1-2)N1CCOCC1
376 nM | N#Cc1cccc(-n2nc(C(=O)N3CCOCC3)c3c2-c2ccccc2S(=O)(=O)C3)c1
735 nM | O=C(CC1CCCCC1)N1CCC[C@H](n2nc(C(=O)N3CCOCC3)c3c2-c2ccccc2S(=O)(=O)C3)C1
573 nM | O=C(c1nn(-c2cccc(CN3CCC(O)CC3)c2)c2c1CS(=O)(=O)c1ccccc1-2)N1CCOCC1
348 nM | O=C(c1cccc(-n2nc(C(=O)N3CCOCC3)c3c2-c2ccccc2S(=O)(=O)C3)c1)N1CCCC(O)C1 (centres undefined)
122 nM | O=C(c1nn(C2CCCN(CCN3CCOCC3)C2)c2c1CS(=O)(=O)c1ccccc1-2)N1CCOCC1 (centres undefined)
45 nM | COCCN(C)CCN1CCC[C@H](n2nc(C(=O)N3CCOCC3)c3c2-c2ccccc2S(=O)(=O)C3)C1
739 nM | O=C(c1nn(-c2cccc(F)c2)c2c1CS(=O)(=O)c1ccccc1-2)N1CCOCC1
274 nM | O=C(c1ccc(-n2nc(C(=O)N3CCOCC3)c3c2-c2ccccc2S(=O)(=O)C3)cc1)N1CCOCC1
540 nM | O=C(c1nn(C2CCCN(Cc3ccccc3)C2)c2c1CS(=O)(=O)c1ccccc1-2)N1CCOCC1 (centres undefined)
488 nM | O=C(c1nn(-c2cccc(Cn3cccn3)c2)c2c1CS(=O)(=O)c1ccccc1-2)N1CCOCC1
438 nM | COCCCN1CCCC(n2nc(C(=O)N3CCOCC3)c3c2-c2ccccc2S(=O)(=O)C3)CC1 (centres undefined)
4640 nM | O=C(c1nn(C2CCNC2)c2c1CS(=O)(=O)c1ccccc1-2)N1CCOCC1 (centres undefined)
54 nM | O=C(c1nn(C2CCCN(CCC3CCOCC3)C2)c2c1CS(=O)(=O)c1ccccc1-2)N1CCOCC1 (centres undefined)
5020 nM | CN(C)c1ccc2c(c1)S(=O)(=O)Cc1c(C(=O)N3CCOCC3)nn(-c3ccccc3)c1-2
994 nM | CS(=O)(=O)N1CCCC(n2nc(C(=O)N3CCOCC3)c3c2-c2ccccc2S(=O)(=O)C3)C1 (centres undefined)
824 nM | O=C(c1nn(C2CCOCC2)c2c1CS(=O)(=O)c1sccc1-2)N1CCOCC1
19 nM | COc1ccc2c(c1)S(=O)(=O)Cc1c(C(=O)N3CCOCC3)nn([C@H]3CCCN(CCN4CCC(F)CC4)C3)c1-2
2250 nM | O=C(c1nn(-c2cccc(CO)c2)c2c1CS(=O)(=O)c1ccccc1-2)N1CCOCC1
1300 nM | O=C(c1nn(-c2cccc(CN3CCOCC3)c2)c2c1CS(=O)(=O)c1ccccc1-2)N1CCOCC1
641 nM | CCCn1nc(C(=O)N2CCOCC2)c2c1-c1ccccc1S(=O)(=O)C2
7 nM | O=C(c1nn([C@H]2CCCN(CCN3CCCC3)C2)c2c1CS(=O)(=O)c1ccccc1-2)N1CCOCC1

IC50 | Structure (SMILES)
21 nM | O=C(c1nn(C2CCN(CCC3CCOCC3)C2)c2c1CS(=O)(=O)c1c(F)cccc1-2)N1CCOCC1 (centres undefined)
3000 nM | O=C(c1nn([C@@H]2CCCNC2)c2c1CS(=O)(=O)c1ccccc1-2)N1CCOCC1
149 nM | O=C(c1nn(C2CCN(CCN3CCC(F)CC3)C2)c2c1CS(=O)(=O)c1ccccc1-2)N1CCOCC1 (centres undefined)
673 nM | O=C(c1nn(-c2cccc(Cn3ccnc3)c2)c2c1CS(=O)(=O)c1ccccc1-2)N1CCOCC1
230 nM | O=C(c1nn(-c2ccc(CN3CCC(F)(F)CC3)cc2)c2c1CS(=O)(=O)c1ccccc1-2)N1CCOCC1
1060 nM | O=C(c1nn(-c2ccc(CO)cc2)c2c1CS(=O)(=O)c1ccccc1-2)N1CCOCC1
13 nM | COC1CCN(CCN2CCC[C@H](n3nc(C(=O)N4CCOCC4)c4c3-c3ccc(F)cc3S(=O)(=O)C4)C2)CC1
509 nM | O=C(c1nn(CC2CCCCC2)c2c1CS(=O)(=O)c1ccccc1-2)N1CCOCC1
43 nM | CN(C)Cc1ccc(-n2nc(C(=O)N3CCOCC3)c3c2-c2ccccc2S(=O)(=O)C3)cc1
7960 nM | CC1CC(C)CC(n2nc(C(=O)N3CCOCC3)c3c2-c2ccccc2S(=O)(=O)C3)C1 (centres undefined)
422 nM | COc1ccc2c(c1)S(=O)(=O)Cc1c(C(=O)N3CCOCC3)nn(C)c1-2
3460 nM | CN1c2c(C(=O)N3CCOCC3)nn(-c3ccccc3)c2-c2ccccc2S1(=O)=O
29 nM | O=C(c1nn(C2CCN(C3CCOCC3)C2)c2c1CS(=O)(=O)c1c(F)cccc1-2)N1CCOCC1 (centres undefined)
1920 nM | O=C(c1nn([C@@H]2CCCN(CCC3CCOCC3)C2)c2c1CS(=O)(=O)c1c(F)cccc1-2)N1CCOCC1
4040 nM | O=C(O)c1nn(-c2ccc(CN3CCOCC3)cc2)c2c1CS(=O)(=O)c1ccccc1-2
105 nM | CC1CN(Cc2ccc(-n3nc(C(=O)N4CCOCC4)c4c3-c3ccccc3S(=O)(=O)C4)cc2)CCO1 (centres undefined)
120 nM | CC1(C)CN(Cc2ccc(-n3nc(C(=O)N4CCOCC4)c4c3-c3ccccc3S(=O)(=O)C4)cc2)CCO1
3050 nM | O=C(c1nn(-c2ccccc2)c2c1CS(=O)(=O)c1ccncc1-2)N1CCOCC1
65 nM | C[C@@H]1CN(CCN2CCC[C@H](n3nc(C(=O)N4CCOCC4)c4c3-c3ccccc3S(=O)(=O)C4)C2)C[C@H](C)O1
4860 nM | Cc1nc(-c2cccc(-n3nc(C(=O)N4CCOCC4)c4c3-c3ccccc3S(=O)(=O)C4)c2)n[nH]1
93 nM | COCCN1CCC[C@H](n2nc(C(=O)N3CCOCC3)c3c2-c2ccc(OC)cc2S(=O)(=O)C3)C1
22 nM | O=C(c1nn(C2CCCN(CCC3CCOCC3)C2)c2c1CS(=O)(=O)c1c(F)cccc1-2)N1CCOCC1 (centres undefined)
